{"source": "patent US20240043927A1", "about": "“METHOD FOR IDENTIFYING SUBSTANCE CAPABLE OF AFFECTING AGING” (ZHEJIANG BAISHOUKANGDI CO., LTD., priority 2019, published 2024)", "key": {"Zip11 [1]": {"tested_on": "Zip11", "assay": "Zip11 mRNA expression in human cells treated with vitamins", "format": "cell-based", "details": "Human HEK293 and HT1080 cells, treated 24 hours; vitamin B3 10, 50, 100 μM; vitamin B12 1, 10, 50 μM; vitamin C 10, 100, 500 μM", "protocol": "Human HEK293 and HT1080 cells were treated for 24 hours respectively at different concentrations of vitamin B3 (10 μM, 50 μM, 100 μM), vitamin B12 (1 μM, 10 μM, 50 μM) and vitamin C (10 μM, 100 μM, 500 μM). The relative expression quantity of Zip11 mRNA was detected."}, "ZIP11 [2]": {"tested_on": "ZIP11", "assay": "ZIP11 expression in liver of wild-type mice injected with concanavalin A (RT-PCR)", "format": "in vivo, mouse", "details": "wild-type C57BL/6 mice, 10 mg/kg through the tail vein, after 18 hours", "protocol": "The wild-type C57BL/6 mice were divided into two groups. An experimental group was injected with 10 mg/kg concanavalin (ConA) through the tail vein."}}, "data": [{"compound": "O=C(O)c1cccnc1", "note": "[vitamin B3]", "values": [{"measurement": "relative expression quantity of Zip11 mRNA", "setting": "Zip11 [1]", "value": "increase the expression level of Zip11"}]}, {"compound": "Concanavalin A [ConA]", "values": [{"measurement": "expression level of ZIP11 in liver tissue (RT-PCR, β-actin as reference)", "setting": "ZIP11 [2]", "value": "decrease the level of ZIP11"}]}, {"compound": "O=C1O[C@H]([C@@H](O)CO)C(O)=C1O", "note": "[vitamin C]", "values": [{"measurement": "relative expression quantity of Zip11 mRNA", "setting": "Zip11 [1]", "value": "increase the expression level of Zip11"}]}, {"compound": "vitamin B12", "values": [{"measurement": "relative expression quantity of Zip11 mRNA", "setting": "Zip11 [1]", "value": "increase the expression level of Zip11"}]}]}
